Assay results reported in ChEMBL document CHEMBL5465560, “Selectivity Literature for EUbOPEN Chemogenomic Library” (2024).

Experiments:
[1] = biological target: Fibroblast growth factor receptor 1 (Homo sapiens, UniProt P11362); experiment: Selectivity interaction (KinaseProfiler screening (Millipore)) EUB0000601a FGFR1; conditions: at 3 µM
[2] = biological target: Tyrosine-protein kinase JAK1 (Homo sapiens, UniProt P23458); experiment: Selectivity interaction (Ambit KINOMEscan and KiNATiv profiling in Jurkat cells) EUB0000090b JAK1; format: cell-based; conditions: at 1 µM
[3] = biological target: Casein kinase II subunit alpha (Homo sapiens, UniProt P68400); experiment: Selectivity interaction (KinomeScan (DiscoverX)) EUB0000607a CSNK2A1; conditions: at 10 µM
Casein kinase II subunit alpha, sequence (P68400 whole entry, looked up): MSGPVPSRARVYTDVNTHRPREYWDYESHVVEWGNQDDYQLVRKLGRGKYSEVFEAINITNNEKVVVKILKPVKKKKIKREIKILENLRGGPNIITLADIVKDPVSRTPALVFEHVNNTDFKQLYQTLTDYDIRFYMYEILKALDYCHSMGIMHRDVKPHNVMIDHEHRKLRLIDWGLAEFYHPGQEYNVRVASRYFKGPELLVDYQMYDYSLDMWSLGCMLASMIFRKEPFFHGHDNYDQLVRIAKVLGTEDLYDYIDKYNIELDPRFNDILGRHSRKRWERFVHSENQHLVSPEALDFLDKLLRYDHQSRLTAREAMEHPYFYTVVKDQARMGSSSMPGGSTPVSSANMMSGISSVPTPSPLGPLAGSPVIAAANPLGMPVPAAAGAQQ

[4] = biological target: Macrophage-stimulating protein receptor (Homo sapiens, UniProt Q04912); experiment: Selectivity interaction (KinomeScan (DiscoverX)) EUB0001619a MST1R; conditions: at 1 µM
[5] = biological target: cAMP-dependent protein kinase catalytic subunit alpha (Homo sapiens, UniProt P17612); experiment: Selectivity interaction (KinomeScan (DiscoverX)) EUB0000595a PRKACA; conditions: at 10 µM
[6] = biological target: T1, Protein kinase C epsilon type (Homo sapiens) (UniProt Q02156); experiment: Selectivity interaction (KinomeScan (DiscoverX)) EUB0000595a PRKCE; conditions: at 10 µM
T1 sequence (whole entry): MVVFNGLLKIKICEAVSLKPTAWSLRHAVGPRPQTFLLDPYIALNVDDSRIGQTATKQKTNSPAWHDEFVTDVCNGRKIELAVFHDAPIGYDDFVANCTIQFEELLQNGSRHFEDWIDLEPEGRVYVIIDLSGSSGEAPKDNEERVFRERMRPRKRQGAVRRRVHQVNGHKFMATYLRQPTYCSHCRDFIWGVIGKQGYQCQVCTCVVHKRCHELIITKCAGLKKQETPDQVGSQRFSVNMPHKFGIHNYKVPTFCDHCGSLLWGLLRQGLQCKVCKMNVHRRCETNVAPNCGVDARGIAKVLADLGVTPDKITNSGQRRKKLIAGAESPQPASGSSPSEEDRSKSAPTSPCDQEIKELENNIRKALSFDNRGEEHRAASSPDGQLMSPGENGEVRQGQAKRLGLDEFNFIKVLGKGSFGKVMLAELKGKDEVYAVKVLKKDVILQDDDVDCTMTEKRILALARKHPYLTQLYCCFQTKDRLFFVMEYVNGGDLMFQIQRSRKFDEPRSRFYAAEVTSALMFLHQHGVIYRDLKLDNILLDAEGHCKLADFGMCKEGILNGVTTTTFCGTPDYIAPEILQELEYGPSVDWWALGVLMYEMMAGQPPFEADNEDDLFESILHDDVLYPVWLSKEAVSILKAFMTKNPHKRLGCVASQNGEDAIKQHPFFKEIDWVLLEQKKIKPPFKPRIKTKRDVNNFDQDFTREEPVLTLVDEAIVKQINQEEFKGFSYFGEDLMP

[7] = biological target: T2, Aurora kinase A (Homo sapiens) (UniProt O14965); experiment: Selectivity interaction (Upstate Kinase Profiler service (Millipore)) EUB0000056c STK6; conditions: at 1 µM
T2 sequence (whole entry): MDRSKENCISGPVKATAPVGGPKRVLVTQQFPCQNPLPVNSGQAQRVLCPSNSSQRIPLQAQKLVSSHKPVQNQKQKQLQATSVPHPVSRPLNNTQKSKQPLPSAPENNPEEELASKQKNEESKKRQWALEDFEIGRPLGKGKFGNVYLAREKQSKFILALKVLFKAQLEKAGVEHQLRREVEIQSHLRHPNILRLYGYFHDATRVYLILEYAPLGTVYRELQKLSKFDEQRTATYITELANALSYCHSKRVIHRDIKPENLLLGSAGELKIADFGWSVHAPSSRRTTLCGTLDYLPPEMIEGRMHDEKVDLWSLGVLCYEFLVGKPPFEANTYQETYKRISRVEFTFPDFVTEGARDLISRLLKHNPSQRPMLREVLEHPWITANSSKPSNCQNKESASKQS

[8] = biological target: Ribosomal protein S6 kinase beta-1 (Homo sapiens, UniProt P23443); experiment: Selectivity interaction (Upstate Kinase Profiler service (Millipore)) EUB0000056c RPS6KB1; conditions: at 1 µM
Ribosomal protein S6 kinase beta-1, sequence (P23443 whole entry, looked up): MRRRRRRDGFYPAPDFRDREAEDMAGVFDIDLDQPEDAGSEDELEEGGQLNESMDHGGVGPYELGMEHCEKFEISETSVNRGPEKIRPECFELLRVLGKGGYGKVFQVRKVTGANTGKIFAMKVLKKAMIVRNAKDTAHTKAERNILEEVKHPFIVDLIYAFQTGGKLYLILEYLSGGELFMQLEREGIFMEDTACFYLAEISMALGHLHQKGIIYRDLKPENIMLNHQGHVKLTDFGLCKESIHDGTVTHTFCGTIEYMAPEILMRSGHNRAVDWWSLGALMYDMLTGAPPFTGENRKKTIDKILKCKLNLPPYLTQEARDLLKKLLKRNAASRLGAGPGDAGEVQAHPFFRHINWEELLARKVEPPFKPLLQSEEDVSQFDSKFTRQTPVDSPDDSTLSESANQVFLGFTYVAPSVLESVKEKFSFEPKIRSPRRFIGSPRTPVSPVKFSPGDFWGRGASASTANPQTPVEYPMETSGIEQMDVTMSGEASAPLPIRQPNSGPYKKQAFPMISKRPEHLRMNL

[9] = biological target: Mitogen-activated protein kinase 11 (Homo sapiens) (UniProt Q15759); experiment: Selectivity interaction (Kinase panel (Invitrogen)) EUB0000639a MAPK11; conditions: at 200 nM
Mitogen-activated protein kinase 11 (Homo sapiens), sequence (Q15759 whole entry): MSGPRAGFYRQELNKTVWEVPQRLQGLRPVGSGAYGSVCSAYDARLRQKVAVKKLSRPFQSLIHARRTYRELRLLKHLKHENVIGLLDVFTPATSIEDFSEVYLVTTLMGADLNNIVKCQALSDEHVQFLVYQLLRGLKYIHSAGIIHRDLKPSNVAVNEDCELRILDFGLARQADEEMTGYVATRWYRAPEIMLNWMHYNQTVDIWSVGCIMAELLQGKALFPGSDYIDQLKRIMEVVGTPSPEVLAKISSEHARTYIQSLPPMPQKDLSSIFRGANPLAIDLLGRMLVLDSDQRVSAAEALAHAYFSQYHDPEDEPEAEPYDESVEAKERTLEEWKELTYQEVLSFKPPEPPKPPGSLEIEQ

[10] = biological target: Serine/threonine-protein kinase PRP4 homolog (Homo sapiens) (UniProt Q13523); experiment: Selectivity interaction (ActivX KiNativ screen (kinase selectivity in THP-1 cell lysates)) EUB0000639a PRPF4; format: subcellular; conditions: lysate, at 0.04 µM
[11] = biological target: Serine/threonine-protein kinase Nek7 (Homo sapiens) (UniProt Q8TDX7); experiment: Selectivity interaction (KinomeScan (DiscoverX)) EUB0000229b NEK7; conditions: at 10 µM
Serine/threonine-protein kinase Nek7 (Homo sapiens), sequence (Q8TDX7 whole entry, looked up): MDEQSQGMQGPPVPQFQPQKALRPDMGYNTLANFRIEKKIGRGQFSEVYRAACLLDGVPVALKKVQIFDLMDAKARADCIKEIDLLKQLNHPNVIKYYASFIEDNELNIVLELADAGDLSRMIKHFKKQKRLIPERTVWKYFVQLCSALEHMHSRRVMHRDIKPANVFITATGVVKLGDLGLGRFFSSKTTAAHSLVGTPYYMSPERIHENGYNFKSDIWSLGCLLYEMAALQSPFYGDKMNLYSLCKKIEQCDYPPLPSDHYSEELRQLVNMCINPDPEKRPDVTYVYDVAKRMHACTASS

[12] = biological target: RAC-gamma serine/threonine-protein kinase (Homo sapiens, UniProt Q9Y243); experiment: Selectivity interaction (ProQinase) EUB0000171b AKT3
RAC-gamma serine/threonine-protein kinase, sequence (Q9Y243 whole entry): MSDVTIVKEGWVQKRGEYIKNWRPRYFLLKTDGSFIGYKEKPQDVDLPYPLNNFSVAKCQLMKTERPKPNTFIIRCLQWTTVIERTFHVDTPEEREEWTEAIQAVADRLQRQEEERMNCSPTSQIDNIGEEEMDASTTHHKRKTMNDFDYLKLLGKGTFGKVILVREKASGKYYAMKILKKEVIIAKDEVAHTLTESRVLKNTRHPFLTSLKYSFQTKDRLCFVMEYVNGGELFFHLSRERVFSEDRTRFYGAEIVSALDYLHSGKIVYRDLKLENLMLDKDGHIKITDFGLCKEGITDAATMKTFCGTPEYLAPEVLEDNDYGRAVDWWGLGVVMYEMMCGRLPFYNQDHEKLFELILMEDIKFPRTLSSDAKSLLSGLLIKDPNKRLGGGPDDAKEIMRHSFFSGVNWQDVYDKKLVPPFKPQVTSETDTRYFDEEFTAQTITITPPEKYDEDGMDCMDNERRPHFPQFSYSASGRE

[13] = biological target: Vascular endothelial growth factor receptor 1 (Homo sapiens) (UniProt P17948); experiment: Selectivity interaction (ProQinase) EUB0000171b FLT1
Vascular endothelial growth factor receptor 1 (Homo sapiens), sequence (P17948 whole entry): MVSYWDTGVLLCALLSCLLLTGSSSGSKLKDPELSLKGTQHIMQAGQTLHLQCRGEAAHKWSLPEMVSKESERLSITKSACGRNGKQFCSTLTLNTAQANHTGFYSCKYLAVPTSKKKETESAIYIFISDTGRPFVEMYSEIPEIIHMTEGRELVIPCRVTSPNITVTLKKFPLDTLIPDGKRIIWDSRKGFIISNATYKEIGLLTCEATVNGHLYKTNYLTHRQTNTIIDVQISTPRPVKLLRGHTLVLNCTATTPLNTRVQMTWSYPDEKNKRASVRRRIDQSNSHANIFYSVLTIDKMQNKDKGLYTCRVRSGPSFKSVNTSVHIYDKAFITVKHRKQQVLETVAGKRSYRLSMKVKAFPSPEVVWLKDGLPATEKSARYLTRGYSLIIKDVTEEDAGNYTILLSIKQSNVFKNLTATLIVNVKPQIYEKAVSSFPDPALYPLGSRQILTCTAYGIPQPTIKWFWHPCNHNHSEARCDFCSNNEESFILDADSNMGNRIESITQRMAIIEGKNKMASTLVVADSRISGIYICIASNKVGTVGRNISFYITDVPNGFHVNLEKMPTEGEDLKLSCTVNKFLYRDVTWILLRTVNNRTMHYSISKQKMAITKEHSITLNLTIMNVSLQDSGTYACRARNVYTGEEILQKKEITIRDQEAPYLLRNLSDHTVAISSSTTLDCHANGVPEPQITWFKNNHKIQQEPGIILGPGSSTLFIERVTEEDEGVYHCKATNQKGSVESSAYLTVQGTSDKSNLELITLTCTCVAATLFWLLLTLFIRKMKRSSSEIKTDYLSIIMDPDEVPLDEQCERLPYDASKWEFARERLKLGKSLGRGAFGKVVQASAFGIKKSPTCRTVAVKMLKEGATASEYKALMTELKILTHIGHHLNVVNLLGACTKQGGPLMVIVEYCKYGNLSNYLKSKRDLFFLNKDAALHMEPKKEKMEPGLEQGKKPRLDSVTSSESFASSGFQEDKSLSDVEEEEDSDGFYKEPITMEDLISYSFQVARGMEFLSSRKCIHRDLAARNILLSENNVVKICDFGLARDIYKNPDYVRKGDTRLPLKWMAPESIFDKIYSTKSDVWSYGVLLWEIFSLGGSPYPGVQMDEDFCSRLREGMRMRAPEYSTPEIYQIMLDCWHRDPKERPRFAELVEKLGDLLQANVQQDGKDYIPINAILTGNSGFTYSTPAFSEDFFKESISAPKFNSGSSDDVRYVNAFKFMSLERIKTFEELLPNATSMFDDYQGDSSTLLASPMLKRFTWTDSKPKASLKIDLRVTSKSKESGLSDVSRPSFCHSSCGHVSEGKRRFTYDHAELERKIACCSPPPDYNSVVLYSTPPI

[14] = biological target: Myosin light chain kinase, smooth muscle (Homo sapiens, UniProt Q15746); experiment: Selectivity interaction (LanthaScreen Eu Kinase Binding Assay) EUB0001632a MYLK; conditions: at 10 µM
[15] = biological target: Cyclin-dependent kinase 5/CDK5 activator 1 (Homo sapiens) (UniProt Q00535+Q15078); experiment: Selectivity interaction (Kinase panel (Z-LYTE Assay)) EUB0001632a CDK5; format: protein-complex assay; conditions: at 10 µM
Cyclin-dependent kinase 5/CDK5 activator 1 (Homo sapiens), sequence (Q00535 whole entry): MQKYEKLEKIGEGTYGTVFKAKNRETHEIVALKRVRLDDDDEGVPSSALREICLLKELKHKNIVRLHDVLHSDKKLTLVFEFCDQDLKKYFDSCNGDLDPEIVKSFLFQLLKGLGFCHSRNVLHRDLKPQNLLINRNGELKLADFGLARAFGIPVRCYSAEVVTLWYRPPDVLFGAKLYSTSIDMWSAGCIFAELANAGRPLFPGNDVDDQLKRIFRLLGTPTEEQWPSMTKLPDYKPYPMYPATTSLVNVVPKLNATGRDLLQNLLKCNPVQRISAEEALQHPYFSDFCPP
Cyclin-dependent kinase 5/CDK5 activator 1 (Homo sapiens), sequence (Q15078 99-307 partner limits assumed): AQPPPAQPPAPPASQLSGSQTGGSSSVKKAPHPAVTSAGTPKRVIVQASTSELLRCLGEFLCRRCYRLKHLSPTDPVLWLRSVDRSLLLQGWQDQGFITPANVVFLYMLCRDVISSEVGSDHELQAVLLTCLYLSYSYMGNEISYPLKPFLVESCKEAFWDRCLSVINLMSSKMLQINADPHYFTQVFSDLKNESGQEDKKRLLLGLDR

[16] = biological target: T3, Protein kinase C iota type (Homo sapiens) (UniProt P41743); experiment: Selectivity interaction (Kinase panel (Z-LYTE Assay)) EUB0001632a PRKCI; conditions: at 10 µM
T3 sequence (whole entry): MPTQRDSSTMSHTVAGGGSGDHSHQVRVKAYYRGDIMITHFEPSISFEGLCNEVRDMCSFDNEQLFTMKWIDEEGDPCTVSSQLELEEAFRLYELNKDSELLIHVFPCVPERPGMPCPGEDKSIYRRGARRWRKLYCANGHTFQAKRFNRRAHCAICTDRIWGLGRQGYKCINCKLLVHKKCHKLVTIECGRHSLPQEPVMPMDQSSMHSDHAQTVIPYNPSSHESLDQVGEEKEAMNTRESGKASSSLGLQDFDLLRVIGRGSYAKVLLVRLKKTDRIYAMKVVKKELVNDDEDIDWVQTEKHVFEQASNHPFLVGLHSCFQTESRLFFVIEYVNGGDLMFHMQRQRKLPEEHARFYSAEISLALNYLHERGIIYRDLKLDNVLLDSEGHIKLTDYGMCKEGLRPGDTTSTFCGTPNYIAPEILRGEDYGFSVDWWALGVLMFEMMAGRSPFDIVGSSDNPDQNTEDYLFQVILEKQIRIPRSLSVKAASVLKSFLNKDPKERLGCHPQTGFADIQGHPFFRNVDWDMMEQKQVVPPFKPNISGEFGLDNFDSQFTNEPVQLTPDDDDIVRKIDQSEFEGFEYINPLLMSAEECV

[17] = biological target: Ribosomal protein S6 kinase alpha-4 (Homo sapiens) (UniProt O75676); experiment: Selectivity interaction (KinomeScan (DiscoverX)) EUB0000695a RPS6KA4; conditions: at 100 nM

Fibroblast growth factor receptor 1, sequence (P11362 22-822 limits assumed): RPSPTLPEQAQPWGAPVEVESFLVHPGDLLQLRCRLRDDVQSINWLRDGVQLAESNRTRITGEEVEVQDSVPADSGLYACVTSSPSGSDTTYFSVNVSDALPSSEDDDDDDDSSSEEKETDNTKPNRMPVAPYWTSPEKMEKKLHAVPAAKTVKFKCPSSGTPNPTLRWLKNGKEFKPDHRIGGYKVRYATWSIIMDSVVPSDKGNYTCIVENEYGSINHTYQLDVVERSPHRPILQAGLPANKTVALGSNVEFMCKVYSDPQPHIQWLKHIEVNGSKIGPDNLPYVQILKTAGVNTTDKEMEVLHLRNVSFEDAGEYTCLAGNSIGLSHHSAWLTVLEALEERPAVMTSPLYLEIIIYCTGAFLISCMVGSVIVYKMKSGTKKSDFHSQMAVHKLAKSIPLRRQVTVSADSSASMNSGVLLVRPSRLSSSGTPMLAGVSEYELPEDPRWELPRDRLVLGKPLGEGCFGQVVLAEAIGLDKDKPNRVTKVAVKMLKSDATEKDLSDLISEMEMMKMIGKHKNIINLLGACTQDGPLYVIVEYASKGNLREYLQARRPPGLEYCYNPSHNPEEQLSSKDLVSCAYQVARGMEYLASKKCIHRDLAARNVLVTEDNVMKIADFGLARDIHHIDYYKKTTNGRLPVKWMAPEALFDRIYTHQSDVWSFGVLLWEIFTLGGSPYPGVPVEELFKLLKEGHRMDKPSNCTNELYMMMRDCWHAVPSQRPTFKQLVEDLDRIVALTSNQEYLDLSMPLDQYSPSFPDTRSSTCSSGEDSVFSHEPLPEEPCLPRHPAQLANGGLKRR

Q: How did the % of inhibition [1] turn out when `CCc1cc(Nc2nccc(-c3c(-c4ccc(OC)c(C(=O)Nc5c(F)cccc5F)c4)nc4ccccn34)n2)c(OC)cc1N1CCC(N2CCN(S(C)(=O)=O)CC2)CC1` was run?
A: Its % of inhibition is 68%.

Q: With `CN(C)C/C=C/C(=O)Nc1ccc(C(=O)N2CCCC(Nc3ncc(Cl)c(-c4c[nH]c5ccccc45)n3)C2)cc1` (centres undefined) as the compound, how does the % of control [2] read?
A: Its % of control is 86%.

Q: How did the % of control [3] turn out when `CNC(=O)Nc1ccc(-c2nc(N3CC4CCC(C3)O4)c3cnn(C4CCC5(CC4)OCCO5)c3n2)cc1` was run?
A: Its % of control is 80%.

Q: Which % of control [4] does the source give for `N#Cc1cccc(-c2c[nH]c3ncnc(N4CCOCC4)c23)c1` here?
A: Its % of control is 95%.

Q: Which % of control [5] does the source give for `COCC(=O)NC/C=C/c1ccc2ncnc(Nc3ccc(Oc4ccc(C)nc4)c(C)c3)c2c1` [CP-724714] here?
A: The % of control was 100%.

Q: What about the % of control [6] of the same compound?
A: Its % of control is 100%.

Q: What does the source list for `Cc1ccc(-c2ccc3c(ccc4sc5c(c43)NC[C@@H](C)NC5=O)n2)cn1`?
A: % of inhibition [7]: 32%; % of inhibition [8]: 8%

Q: For `CC[C@@H]1[C@H](F)C(=O)N[C@@H]1COc1nccc2cc(C(N)=O)c(OC)cc12` [ZIMLOVISERTIB], which % of inhibition [9] is on record?
A: Its % of inhibition is 5.62%.

Q: And the % of inhibition [10]?
A: Its % of inhibition is 4.1%.

Q: Which % binding [11] does the source give for `COc1cc(N(C)c2ccnc3ccc(C(F)(F)F)cc23)cc(OC)c1OC` here?
A: Its % binding is 100%.

Q: `C=CC(=O)Nc1cccc(C(=O)Nc2ccc(Nc3cc(-c4[nH]c(SC)nc4C)ccn3)cc2)c1` was tested. Which % of control ([12]; at 1 µM) did it give?
A: The % of control was 95%.

Q: And the % of control ([12]; at 5 µM)?
A: The % of control was 90%.

Q: And the % of control ([13]; at 1 µM)?
A: The % of control was 84%.

Q: And the % of control ([13]; at 5 µM)?
A: Its % of control is 66%.

Q: Which % of inhibition [14] does the source give for `Cn1cc(-n2cnc3c(NCc4nc5cc(Cl)c(Cl)cc5[nH]4)nc(N4CCOCC4)nc32)cn1` here?
A: Its % of inhibition is -17.4%.

Q: What about the % of control [15] of the same compound?
A: The % of control was 3.1%.

Q: And the % of control [16]?
A: The % of control was 8.02%.

Q: With `Cc1cc(F)c(C(=O)Nc2cccc(-c3nncn3C(C)C)n2)cc1-n1cnc(C2CC2)c1` as the compound, how does the % of control [17] read?
A: Its % of control is 69%.
